{
  "source": "patent US20260262643A1",
  "about": "“HERBICIDAL BENZOXAZINES” (FMC CORPORATION, priority 2022, published 2026)",
  "key": {"barnyardgrass [1]": {"system": "barnyardgrass", "assay": "Test C preemergence", "assay_type": "in vivo, Echinochloa crusgalli", "summary_of_the_method": "(§1)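 Visual injury ratings on a 0–100 scale (100 = complete control) were made against untreated controls 10 days after treatment in the greenhouse. Compounds, formulated with surfactant in non-phytotoxic solvent, were sprayed on soil preemergence or onto one- to two-leaf plants 2–10 cm tall postemergence.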"}, "blackgrass [2]": {"system": "blackgrass", "assay": "Test C preemergence", "assay_type": "in vivo, Alopecurus myosuroides", "summary_of_the_method": "as §1"}, "corn [3]": {"system": "corn", "assay": "Test C preemergence", "assay_type": "in vivo, Zea mays", "summary_of_the_method": "as §1"}, "green foxtail [4]": {"system": "green foxtail", "assay": "Test C preemergence", "assay_type": "in vivo, Setaria viridis", "summary_of_the_method": "as §1"}, "kochia [5]": {"system": "kochia", "assay": "Test C preemergence", "assay_type": "in vivo, Bassia scoparia", "summary_of_the_method": "as §1"}, "oat, wild [6]": {"system": "oat, wild", "assay": "Test C preemergence", "assay_type": "in vivo, Avena fatua", "summary_of_the_method": "as §1"}, "pigweed, palmer [7]": {"system": "pigweed, palmer", "assay": "Test C preemergence", "assay_type": "in vivo, Amaranthus palmeri", "summary_of_the_method": "as §1"}, "ragweed [8]": {"system": "ragweed", "assay": "Test C preemergence", "assay_type": "in vivo, Ambrosia artemisiifolia", "summary_of_the_method": "as §1"}, "ryegrass, Italian [9]": {"system": "ryegrass, Italian", "assay": "Test C preemergence", "assay_type": "in vivo, Lolium multiflorum", "summary_of_the_method": "as §1"}, "soybean [10]": {"system": "soybean", "assay": "Test C preemergence", "assay_type": "in vivo, Glycine max", "summary_of_the_method": "as §1"}, "wheat [11]": {"system": "wheat", "assay": "Test C preemergence", "assay_type": "in vivo, Triticum aestivum", "summary_of_the_method": "as §1"}, "barnyardgrass [12]": {"system": "barnyardgrass", "assay": "Test C postemergence", "assay_type": "in vivo, Echinochloa crusgalli", "conditions": "10 days, 0 to 100 scale (0 no effect, 100 complete control)", "summary_of_the_method": "as §1"}, "blackgrass [13]": {"system": "blackgrass", "assay": "Test C postemergence", "assay_type": "in vivo, Alopecurus myosuroides", "conditions": "10 days, 0 to 100 scale (0 no effect, 100 complete control)", "summary_of_the_method": "as §1"}, "corn [14]": {"system": "corn", "assay": "Test C postemergence", "assay_type": "in vivo, Zea mays", "conditions": "10 days, 0 to 100 scale (0 no effect, 100 complete control)", "summary_of_the_method": "as §1"}, "green foxtail [15]": {"system": "green foxtail", "assay": "Test C postemergence", "assay_type": "in vivo, Setaria viridis", "conditions": "10 days, 0 to 100 scale (0 no effect, 100 complete control)", "summary_of_the_method": "as §1"}, "kochia [16]": {"system": "kochia", "assay": "Test C postemergence", "assay_type": "in vivo, Bassia scoparia", "conditions": "10 days, 0 to 100 scale (0 no effect, 100 complete control)", "summary_of_the_method": "as §1"}, "oat, wild [17]": {"system": "oat, wild", "assay": "Test C postemergence", "assay_type": "in vivo, Avena fatua", "conditions": "10 days, 0 to 100 scale (0 no effect, 100 complete control)", "summary_of_the_method": "as §1"}, "pigweed, palmer [18]": {"system": "pigweed, palmer", "assay": "Test C postemergence", "assay_type": "in vivo, Amaranthus palmeri", "conditions": "10 days, 0 to 100 scale (0 no effect, 100 complete control)", "summary_of_the_method": "as §1"}, "ragweed [19]": {"system": "ragweed", "assay": "Test C postemergence", "assay_type": "in vivo, Ambrosia artemisiifolia", "conditions": "10 days, 0 to 100 scale (0 no effect, 100 complete control)", "summary_of_the_method": "as §1"}, "ryegrass, Italian [20]": {"system": "ryegrass, Italian", "assay": "Test C postemergence", "assay_type": "in vivo, Lolium multiflorum", "conditions": "10 days, 0 to 100 scale (0 no effect, 100 complete control)", "summary_of_the_method": "as §1"}, "soybean [21]": {"system": "soybean", "assay": "Test C postemergence", "assay_type": "in vivo, Glycine max", "conditions": "10 days, 0 to 100 scale (0 no effect, 100 complete control)", "summary_of_the_method": "as §1"}, "wheat [22]": {"system": "wheat", "assay": "Test C postemergence", "assay_type": "in vivo, Triticum aestivum", "conditions": "10 days, 0 to 100 scale (0 no effect, 100 complete control)", "summary_of_the_method": "as §1"}, "galium": {"system": "galium", "assay": "Test C postemergence", "assay_type": "in vivo, Galium aparine", "conditions": "10 days, 0 to 100 scale (0 no effect, 100 complete control)", "summary_of_the_method": "as §1"}, "horseweed": {"system": "horseweed", "assay": "Test C postemergence", "assay_type": "in vivo, Erigeron canadensis", "conditions": "10 days, 0 to 100 scale (0 no effect, 100 complete control)", "summary_of_the_method": "as §1"}, "barnyardgrass [23]": {"system": "barnyardgrass", "assay": "Test D flooded paddy test", "assay_type": "in vivo, Echinochloa crus-galli", "conditions": "250 g ai/ha, applied to paddy water, visual rating after 13 to 14 days, scale 0 to 100 (0 no effect, 100 complete control)", "summary_of_the_method": "(§2)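 Rating scale 0–100 (0 no effect, 100 complete control), visual, versus controls. Readout at 13–14 days after in-water application to 2-leaf plants in pots flooded 3 cm deep.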"}, "ducksalad": {"system": "ducksalad", "assay": "Test D flooded paddy test", "assay_type": "in vivo, Heteranthera limosa", "conditions": "250 g ai/ha, applied to paddy water, visual rating after 13 to 14 days, scale 0 to 100 (0 no effect, 100 complete control)", "summary_of_the_method": "as §2"}, "rice": {"system": "rice", "assay": "Test D flooded paddy test", "assay_type": "in vivo, Oryza sativa", "conditions": "250 g ai/ha, applied to paddy water, visual rating after 13 to 14 days, scale 0 to 100 (0 no effect, 100 complete control)", "summary_of_the_method": "as §2"}, "sedge, umbrella": {"system": "sedge, umbrella", "assay": "Test D flooded paddy test", "assay_type": "in vivo, Cyperus difformis", "conditions": "250 g ai/ha, applied to paddy water, visual rating after 13 to 14 days, scale 0 to 100 (0 no effect, 100 complete control)", "summary_of_the_method": "as §2"}, "[24]": {"conditions": "500 g ai/ha, preemergence, 0 to 100 scale (0 no effect, 100 complete control)"}, "[25]": {"conditions": "Preemergence, 125 g ai/ha, 0 to 100 scale, 0 no effect, 100 complete control"}},
  "data": [
    {"molecule": "CCOCC1CN(C(=O)c2cc(-n3cnc(C(C)(C)C)n3)ccc2OC)c2cccc(Cl)c2O1", "note": "(stereo not shown) [Compound 379]", "values": [
      {"measurement": "Barnyardgrass plant response rating", "setting": "barnyardgrass [1]; [24]", "value": 100},
      {"measurement": "Plant response rating, Barnyardgrass", "setting": "barnyardgrass [1]; [25]", "value": 60},
      {"measurement": "Blackgrass plant response rating", "setting": "blackgrass [2]; [24]", "value": 0},
      {"measurement": "Plant response rating, Blackgrass", "setting": "blackgrass [2]; [25]", "value": 0},
      {"measurement": "Corn plant response rating", "setting": "corn [3]; [24]", "value": 30},
      {"measurement": "Plant response rating, Corn", "setting": "corn [3]; [25]", "value": 30},
      {"measurement": "Foxtail, Green plant response rating", "setting": "green foxtail [4]; [24]", "value": 100},
      {"measurement": "Plant response rating, Foxtail, Green", "setting": "green foxtail [4]; [25]", "value": 80},
      {"measurement": "Kochia plant response rating", "setting": "kochia [5]; [24]", "value": 100},
      {"measurement": "Plant response rating, Kochia", "setting": "kochia [5]; [25]", "value": 80},
      {"measurement": "Oat, Wild plant response rating", "setting": "oat, wild [6]; [24]", "value": 80},
      {"measurement": "Plant response rating, Oat, Wild", "setting": "oat, wild [6]; [25]", "value": 30},
      {"measurement": "Pigweed, Palmer plant response rating", "setting": "pigweed, palmer [7]; [24]", "value": 100},
      {"measurement": "Plant response rating, Pigweed, Palmer", "setting": "pigweed, palmer [7]; [25]", "value": 100},
      {"measurement": "Ragweed plant response rating", "setting": "ragweed [8]; [24]", "value": 80},
      {"measurement": "Plant response rating, Ragweed", "setting": "ragweed [8]; [25]", "value": 0},
      {"measurement": "Ryegrass, Italian plant response rating", "setting": "ryegrass, Italian [9]; [24]", "value": 90},
      {"measurement": "Plant response rating, Ryegrass, Italian", "setting": "ryegrass, Italian [9]; [25]", "value": 70},
      {"measurement": "Soybean plant response rating", "setting": "soybean [10]; [24]", "value": 90},
      {"measurement": "Plant response rating, Soybean", "setting": "soybean [10]; [25]", "value": 90},
      {"measurement": "Wheat plant response rating", "setting": "wheat [11]; [24]", "value": 40},
      {"measurement": "Plant response rating, Wheat", "setting": "wheat [11]; [25]", "value": 20},
      {"measurement": "Plant response rating, Barnyardgrass", "setting": "barnyardgrass [12]; 500 g ai/ha, postemergence", "value": 60},
      {"measurement": "Plant response rating, Barnyardgrass", "setting": "barnyardgrass [12]; Postemergence, 125 g ai/ha", "value": 30},
      {"measurement": "Plant response rating, Blackgrass", "setting": "blackgrass [13]; 500 g ai/ha, postemergence", "value": 30},
      {"measurement": "Plant response rating, Blackgrass", "setting": "blackgrass [13]; Postemergence, 125 g ai/ha", "value": 30},
      {"measurement": "Plant response rating, Corn", "setting": "corn [14]; 500 g ai/ha, postemergence", "value": 50},
      {"measurement": "Plant response rating, Corn", "setting": "corn [14]; Postemergence, 125 g ai/ha", "value": 30},
      {"measurement": "Plant response rating, Foxtail, Green", "setting": "green foxtail [15]; 500 g ai/ha, postemergence", "value": 20},
      {"measurement": "Plant response rating, Foxtail, Green", "setting": "green foxtail [15]; Postemergence, 125 g ai/ha", "value": 20},
      {"measurement": "Plant response rating, Kochia", "setting": "kochia [16]; 500 g ai/ha, postemergence", "value": 90},
      {"measurement": "Plant response rating, Kochia", "setting": "kochia [16]; Postemergence, 125 g ai/ha", "value": 90},
      {"measurement": "Plant response rating, Oat, Wild", "setting": "oat, wild [17]; 500 g ai/ha, postemergence", "value": 10},
      {"measurement": "Plant response rating, Oat, Wild", "setting": "oat, wild [17]; Postemergence, 125 g ai/ha", "value": 0},
      {"measurement": "Plant response rating, Pigweed, Palmer", "setting": "pigweed, palmer [18]; 500 g ai/ha, postemergence", "value": 100},
      {"measurement": "Plant response rating, Pigweed, Palmer", "setting": "pigweed, palmer [18]; Postemergence, 125 g ai/ha", "value": 80},
      {"measurement": "Plant response rating, Ragweed", "setting": "ragweed [19]; 500 g ai/ha, postemergence", "value": 90},
      {"measurement": "Plant response rating, Ragweed", "setting": "ragweed [19]; Postemergence, 125 g ai/ha", "value": 30},
      {"measurement": "Plant response rating, Ryegrass, Italian", "setting": "ryegrass, Italian [20]; 500 g ai/ha, postemergence", "value": 50},
      {"measurement": "Plant response rating, Ryegrass, Italian", "setting": "ryegrass, Italian [20]; Postemergence, 125 g ai/ha", "value": 30},
      {"measurement": "Plant response rating, Soybean", "setting": "soybean [21]; 500 g ai/ha, postemergence", "value": 100},
      {"measurement": "Plant response rating, Soybean", "setting": "soybean [21]; Postemergence, 125 g ai/ha", "value": 100},
      {"measurement": "Plant response rating, Wheat", "setting": "wheat [22]; 500 g ai/ha, postemergence", "value": 20},
      {"measurement": "Plant response rating, Wheat", "setting": "wheat [22]; Postemergence, 125 g ai/ha", "value": 10},
      {"measurement": "Plant response rating, Galium", "setting": "galium; 500 g ai/ha, postemergence", "value": 100},
      {"measurement": "Plant response rating, Galium", "setting": "galium; Postemergence, 125 g ai/ha", "value": 70},
      {"measurement": "Plant response rating, Horseweed", "setting": "horseweed; 500 g ai/ha, postemergence", "value": 30},
      {"measurement": "Plant response rating, Horseweed", "setting": "horseweed; Postemergence, 125 g ai/ha", "value": 0},
      {"measurement": "Plant response rating, Barnyardgrass (Flood)", "setting": "barnyardgrass [23]", "value": 35},
      {"measurement": "Plant response rating, Ducksalad (Flood)", "setting": "ducksalad", "value": 55},
      {"measurement": "Plant response rating, Rice (Flood)", "setting": "rice", "value": 15},
      {"measurement": "Plant response rating, Sedge, Umbrella (Flood)", "setting": "sedge, umbrella", "value": 65}
    ]}
  ]
}
